# Publication PMC12040169 (PLOS Biology, 2025)
# Experiment: in vitro
# Conditions: human, hela cells, % viability
row,Compound,"viability at 28.5 h, 10 µM"
1,Cn1ccnc1C1(O)CCN(C(=O)Cc2ccccc2F)CC1 [CBK283585],97.6%
2,Cc1cc(=O)oc2cc(NC(=S)NNC(=O)c3ccc4c(c3)c(C)c(C)n4Cc3ccccc3)ccc12 [CBK267138],89.6%
3,Cc1csc(C(Cc2ccsc2)NC(=O)CCn2ccnc2)n1 (centres unmarked) [CBK285391],91.2%
4,Cc1cc(C)nc(NC(=O)C2C3C=CC(C3)C2C(=O)O)c1 (centres unmarked) [CBK058843],104%
5,CC1CCc2noc(C3CCCN(C(=O)c4ccco4)C3)c2C1 (centres unmarked) [CBK282865],110%
6,Nc1ncnc2c1nc1n2[C@H]2C[C@@H](O)[C@@H](C1)O2 [CBK201254],102%
7,CCn1cc(C(=O)N2CCCCC2c2nc3ccccc3[nH]2)c(C)n1 (centres unmarked) [CBK283778],91.5%
8,Cc1ccn(-c2ccc(N3CCC(OC4CCCC4)CC3)nn2)n1 [CBK306301],96%
9,O=C(CN(c1ccccc1)S(=O)(=O)c1ccccc1[N+](=O)[O-])Nc1ccccc1 [CBK263777],76.3%
10,OC12CCCCC1CN(Cc1nc3ccccc3[nH]1)CC2 (centres unmarked) [CBK282995],93.9%
11,Cc1cc(N(C)Cc2ccccc2Br)nc(N)n1 [CBK297753],70.2%
12,O=C(O)C1C2C=CC(O2)C1C(=O)Nc1ccc2c(c1)OCO2 (centres unmarked) [CBK265475],88.6%
13,Cc1c(C(=O)N2CCS(=O)(=O)CC2)nnn1-c1ccc2ncccc2c1 [CBK305529],112%
14,Cc1ccc(-c2nc3ccccc3[nH]2)cc1 [CBK085933],89.9%
15,Cc1ccc(C(=O)CN2CCC3(CC2)NCCc2c3[nH]c3ccc(F)cc23)cc1 [CBK039503],107%
16,O=C(O)c1cc2oc3ccccc3c3ccccc3oc2cc1C(=O)Nc1cccc([N+](=O)[O-])c1 [CBK265500],99.1%
17,NC(=O)CCn1c(=S)n(CCC(N)=O)c2ccccc21 [CBK262301],86.2%
18,COC(=O)CNC(c1ccccc1)c1cc(Br)ccc1NC(C)=O (centres unmarked) [CBK262976],119%
19,N#Cc1cccc(C(=O)N2CCCN(Cc3ccc(Cl)cc3)CC2)c1 [CBK305323],95.9%
20,O=C(c1cc(O)nc2ccccc12)N1CCN(S(=O)(=O)N2CCCC2)CC1 [CBK297898],88.6%
21,Nc1nnc2c(C(F)(F)F)nc3ccccc3n12 [CBK021345],82.1%
22,COC(=O)c1sccc1NC(=O)c1ccc(F)cc1Cl [CBK270325],88.2%

row,Compound,"viability at 28.5 h, 10 µM"
1,CC(NC(=O)CCc1nc2ccccc2n1C)c1ccccn1 (centres unmarked) [CBK281823],89%
2,Cc1ccc(CN2CCC(CN(C)C(=O)c3cc4sccc4[nH]3)CC2)o1 [CBK307522],102%
3,COc1ccccc1-c1ccc(NC(=O)CCc2ccc3c(c2)n(C)c(=O)n3C)cc1 [CBK286527],93.1%
4,c1ccc(CCN2CCC(N3CCOCC3)CC2)cc1 [CBK261928],85.2%
5,COc1ccc2[nH]c(CN3CCCC(c4nc(C)n[nH]4)C3)c(C)c2c1 (centres unmarked) [CBK306904],101%
6,CC(C)[C@@H](N)Cn1nnc2ccccc21 [CBK284323],82.7%
7,Nc1ncc(-c2ccc(C(=O)O)cc2)nc1-c1ccc(C(=O)N2CCOCC2)cc1 [CBK084518],90.8%
8,CCc1nc2ccc(C(=O)N(C)CCN(C)C)cn2c1N(CC)Cc1cccc(Br)c1 [CBK146962],93.1%
9,O=C(c1cnoc1-c1ccc(F)cc1)N1CCCC1 [CBK153707],97.9%
10,CCNC(=O)Nc1ccc2c(-c3ccc4c(c3)CCO4)ccnc2n1 [CBK070673],96.2%
11,CC(c1ncc(Br)cn1)N1CCN(Cc2noc(C(C)(C)C)n2)CC1 (centres unmarked) [CBK306168],87.4%
12,COc1ccc(C)cc1S(=O)(=O)N(CC(=O)Nc1ccccc1C)c1ccc(Cl)cc1 [CBK267995],90.1%
13,COc1ccc(CC(=O)Nc2nc(OC)cnc2-c2ccoc2)cc1 [CBK145435],92.8%
14,OC1(c2cccnc2)CCCC2CN(Cc3cc(F)ccc3F)CC21 (centres unmarked) [CBK284513],103%
15,COCCNC(=O)C1(O)c2ccccc2NC(=O)N1c1cccc(OC)c1 (centres unmarked) [CBK288589],110%
16,O=C(NC(c1ccccc1)c1cccnc1)C1CCN(C(=O)NC2CCCCC2)CC1 (centres unmarked) [CBK060378],84%
17,CN(C)CCCN(C(=O)c1ccccc1)c1nc2ccc(F)cc2s1 [CBK287640],97.4%
18,COc1ccc(CCNC(=O)N2CCCC(CO)C2)cc1 (centres unmarked) [CBK156059],87.1%
19,COc1ccc(CNc2nc(C)n[nH]2)cc1Cl [CBK288036],98.9%
20,Cn1c(=O)[nH]c(=O)c2c1nc(Sc1ncccn1)n2CCCc1ccccc1 [CBK269282],86.3%
21,O=C(Cn1cc(C(=O)NCC2(c3ccccc3)CCCC2)ccc1=O)NC1CCCC1 [CBK286040],104%
22,Cc1ccc(OCC(=O)NC(=S)Nc2ccc(Cl)c(-c3nc4ncccc4o3)c2)cc1 [CBK263930],103%

row,Compound,"viability at 28.5 h, 10 µM"
1,COc1ccc(Oc2ncnc3c2[nH]c2ccccc23)cc1 [CBK291254],88.9%
2,Cc1c(C(C)NCC(O)c2ccco2)cnn1-c1ccc(C#N)cc1 (centres unmarked) [CBK306462],88.4%
3,COc1ccc(CN2CCN(C)CC2)cc1OCc1ccccc1 [CBK261886],88.2%
4,O=C(NC1(c2ccc(F)cc2)CCCC1)c1cnn2cccnc12 [CBK283612],97.4%
5,Nc1nc(C2CC(N)C2)cc(N2CCC(Oc3ccccc3F)CC2)n1 (centres unmarked) [CBK306909],85.5%
6,COc1ccc(/C=C(\C)C(=O)NCc2ccc(OC3CCNCC3)cc2)cc1OC [CBK038914T],90.9%
7,CCCCC(=O)NC1CCN(C(=O)c2cccc(C#N)c2)CC1 [CBK306309],83.4%
8,O=C(O)CCSC1CC(=O)N(c2ccc(F)cc2)C1=O (centres unmarked) [CBK276120],89.9%
9,CN(Cc1cnn(C)c1)C(=O)COCc1nc2cc(F)ccc2[nH]1 [CBK306687],94.3%
10,COc1ccc(S(=O)(=O)Nc2sccc2C#N)cc1 [CBK034732],110%
11,Cc1cccc(-c2nc(CN3CCOCC3)cs2)c1 [CBK270299],103%
12,Cn1c(-c2ccccc2)cnc1NC(=O)C1CCN(S(=O)(=O)c2ccc(F)cc2)C1 (centres unmarked) [CBK285709],95.6%
13,O=C(CO)N1CC2(CCN(CCn3cccc3)CC2)c2ccccc21 [CBK143953],86.9%
14,CCCn1ncc(CN2CCC(c3cc4cccnc4[nH]3)CC2)c1C [CBK284949],97.2%
15,CCOc1cccc(-c2cncc(NCCO)n2)c1 [CBK066075],81%
16,O=C(CC1CC1)NCc1ccc(-c2csnn2)cc1 [CBK149287],92.8%
17,CN(C)CCN(C)c1nc(-c2cc(C(F)(F)F)cc(C(F)(F)F)c2)cn2ccnc12 [CBK037971],104%
18,CC12CCC(CC1C(=O)NC1CC1)[C@]1(C2)NC(=O)c2ccccc2N1 (some centres unmarked) [CBK284445],92.2%
19,COc1ccc(-c2c[nH]c([C@@H]3COCCN3Cc3ccc(C(=O)O)cc3)n2)cc1 [CBK289305],84.1%
20,CC1(C)CC(NC(=O)CCc2cc(C(C)(C)C)c(O)c(C(C)(C)C)c2)CC(C)(C)N1 [CBK261986],88.9%
21,Cc1cccc(-n2nnnc2SC(C)C(=O)O)c1 (centres unmarked) [CBK287003],90.1%
22,COCCNC(=O)CN(C)c1nc(-c2ccncc2)nc2ccccc12 [CBK305611],94.2%

row,Compound,"viability at 28.5 h, 10 µM"
1,O=C(c1ccccc1Nc1cccc(C(F)(F)F)c1)N1CCN(c2ccccn2)CC1 [CBK012634],94.4%
2,Cc1cccc(NC(=O)NCc2ccccn2)c1 [CBK269422],92.3%
3,Cc1nccn1CCCn1cncc1-c1cnn(C2CCCCC2)c1 [CBK281816],105%
4,CCNS(=O)(=O)c1ccc2c(c1)N(Cc1n[nH]c(CC)n1)CC2 [CBK306434],86.9%
5,O=C(Nc1nc2ccc(Cl)cc2s1)c1nc(SCc2ccccc2)ncc1Cl [CBK268825],98.2%
6,CCOC(=O)c1cnc(SCC(=O)N2CCN(c3ccccc3)CC2)nc1N [CBK269159],90.5%
7,CS(=O)(=O)Nc1c[nH]nc1C1CCCN(c2cccc(F)c2C#N)C1 (centres unmarked) [CBK305444],95.2%
8,COc1ccc(C(C)C)cc1-c1cc2ncccc2nc1N [CBK081202],89.3%
9,COc1cccc(-c2noc(C3CCN(CCc4ccc(F)cc4)CC3)n2)c1 [CBK051461],121%
10,CC(C)NC(=O)c1sc2ccccc2c1C1CCN(S(=O)(=O)c2ccccc2)C1 (centres unmarked) [CBK285927],83.1%
11,CCCCSc1cc(C)nc2ncnn12 [CBK021443],105%
12,CCN(CC)c1ccc(CN(CCCN(C)C)C(=O)NCC2CCCCC2)cc1 [CBK159392],106%
13,O=C1CCC(=O)N1CCOc1nccnc1N1CCN(CC2CC2)CC1 [CBK084305],93.9%
14,CN(CC1CCCC1)c1nccc(N2CCN[C@H]3CS(=O)(=O)C[C@H]32)n1 [CBK307060],83.9%
15,COc1cc2c(cc1OC)CN(C(=O)N(CCN)CCC(C)c1ccccc1)CC2 (centres unmarked) [CBK000612C],80.9%
16,CCCN1C(=S)N(CCO)C(=O)/C1=C/C=C1/Oc2ccccc2N1CCC(=O)O [CBK261400],88.6%
17,CN1CCN(c2nc(-c3ccoc3)cnc2N)CC1 [CBK063362],103%
18,Cc1cc(C(=O)N2CCC(c3nnc(CN(C)C)n3C)CC2)ccc1F [CBK306748],95.5%
19,Nc1[nH]ncc1-c1nnc(Nc2ccc3c(c2)OCO3)o1 [CBK288537],85.1%
20,CCCc1n[nH]c(=S)n1CC(=O)NCc1ccc(Oc2cc(C)ccc2C)nc1 [CBK297742],87.5%
21,CS(=O)(=O)N1CCN(C2CCN(Cc3ccccc3)CC2)CC1 [CBK263485],95.9%
22,Cc1cc(N2C(=O)c3oc4ccccc4c(=O)c3C2c2ccncc2)no1 (centres unmarked) [CBK287780],103%

# Same assay, conditions: human, hela cells, % viability, bulk resorufin, single well
row,Compound,"viability at 28.5 h, 10 µM"
1,O=C(NN=C1CCCCC1)C(O)(c1ccccc1)c1ccccc1 [CBK261783],91.1%
